# Values quoted from earlier work as cited in patent US20030084473A1, “Non-transgenic herbicide resistant plants” (priority 2001, published 2003).
# Target: wild-type EPSPS from E. coli (Escherichia coli, UniProt P0A6D3)
# Details: read-out: apparent Km for PEP
# wild-type EPSPS from E. coli, sequence (P0A6D3 whole entry): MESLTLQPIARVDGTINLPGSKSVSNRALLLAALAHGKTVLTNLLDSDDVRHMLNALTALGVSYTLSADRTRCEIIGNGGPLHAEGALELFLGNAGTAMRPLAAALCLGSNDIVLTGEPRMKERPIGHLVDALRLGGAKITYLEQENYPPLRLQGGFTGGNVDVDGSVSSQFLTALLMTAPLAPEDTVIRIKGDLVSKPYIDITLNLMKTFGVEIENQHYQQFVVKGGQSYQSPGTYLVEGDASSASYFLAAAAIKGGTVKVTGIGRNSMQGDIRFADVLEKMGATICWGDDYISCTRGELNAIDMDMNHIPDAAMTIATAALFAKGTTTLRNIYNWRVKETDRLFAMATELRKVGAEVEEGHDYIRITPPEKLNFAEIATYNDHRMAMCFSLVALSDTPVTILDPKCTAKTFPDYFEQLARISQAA
smiles,measurement,value
"C=C(OP(=O)(O)O)C(=O)O [PEP, phosphoenolpyruvic acid]",Km,10 µM
